The results in this text go back to ChEMBL document CHEMBL3045782, “SYNTHESIS OF THE RIGID ANALOGUES OF AN SSRI BENZENEPROPANAMINE” (Med Chem Res, 2004).

Molecules are shown by their SMILES. Activity calls are given as the source filed them. The calls are words filed in the database; no cut-off is given here.

In data set [1] the test system is Mus musculus. Briefly: Toxicity in Mus musculus albino (mouse) assessed as effect on gross behavior activity at 75 umol/kg, ip. The class given is organism-based. Particulars: in vivo.
For data set [2], the system named is Mus musculus. Briefly: Anorexigenic activity in Mus musculus albino (mouse) assessed as anorexia at 75 umol/kg, ip. In kind it is functional.
Data set [3] deals with Mus musculus. Put plainly: Antidepressant activity in Mus musculus albino (mouse) assessed as reversal of reserpine-induced ptosis, sedation and crouching at 75 umol/kg, ip. The class given is functional.
Data set [4] deals with Mus musculus. Briefly: Anorexigenic activity in Mus musculus albino (mouse) assessed as anorexia at 75 umol/kg, ip relative to fluoxetine. The class given is functional.

With `OC(COc1ccc(Br)cc1)CN1CCC(Oc2ccc(C(F)(F)F)cc2)CC1` (stereo unspecified), the Activity result in the data set on Mus musculus [1] was “Non-toxic”; in the data set with Mus musculus [2], 77.6%; in the data set on Mus musculus [4] it was 95.09%. In addition, the result in the data set on Mus musculus [3] was inactive.

For the compound `COc1cccc(OCC(O)CN2CCC(Oc3ccc(C(F)(F)F)cc3)CC2)c1` (stereo unspecified), the Activity entry in the data set with Mus musculus [1] is “Non-toxic”; with Mus musculus [2], 51.6%; with Mus musculus [3], 50%; with Mus musculus [4], 63.23%.

For the compound `CCC(=O)c1ccc(OCC(O)CN2CCC(Oc3ccc(C(F)(F)F)cc3)CC2)cc1` (stereo unspecified), the Activity entry is recorded as “Non-toxic” with Mus musculus [1], 55.2% in the data set with Mus musculus [2] and 67.64% in the data set on Mus musculus [4]. The result in the data set on Mus musculus [3] was inactive.

With `OC(COc1ccc(C(F)(F)F)cc1)CN1CCC(Oc2ccc(C(F)(F)F)cc2)CC1` (stereo unspecified), the Activity result with Mus musculus [1] was “Non-toxic”; in the data set on Mus musculus [2], 63.6%; in the data set with Mus musculus [4], 77.94%. Further, the outcome in the data set on Mus musculus [3] was inactive.

In the case of `OC(COc1ccccc1)CN1CCC(Oc2ccc(C(F)(F)F)cc2)CC1` (stereo unspecified), the Activity result is listed as “Non-toxic” in the data set with Mus musculus [1], 67.6% in the data set on Mus musculus [2] and 82.84% in the data set with Mus musculus [4]. Moreover, in the data set with Mus musculus [3], the outcome was inactive.

As to `CNCCC(Oc1ccc(C(F)(F)F)cc1)c1ccccc1` (stereo unspecified) [FLUOXETINE], the Activity in the data set with Mus musculus [2] came to 81.6%; in the data set on Mus musculus [3], 100%.

On to `OC(COc1ccc(Cl)cc1)CN1CCC(Oc2ccc(C(F)(F)F)cc2)CC1` (stereo unspecified), for which the Activity entry with Mus musculus [1] was “Non-toxic”; in the data set on Mus musculus [2], 61.6%; in the data set with Mus musculus [3], 75%; with Mus musculus [4], 75.49%.

For the compound `COc1ccc(OCC(O)CN2CCC(Oc3ccc(C(F)(F)F)cc3)CC2)cc1` (stereo unspecified), the values for the Activity entry with Mus musculus [1], in the data set on Mus musculus [2] and with Mus musculus [4] were “Non-toxic”, 38.4% and 47.05%, respectively. In the data set on Mus musculus [3], the result was inactive.

Regarding `CN1CCC(Oc2ccc(C(F)(F)F)cc2)CC1`, the Activity result was “Non-toxic” with Mus musculus [1], 23.6% with Mus musculus [2] and 28.92% in the data set with Mus musculus [4]. Also, in the data set on Mus musculus [3], the outcome was inactive.

Turning to `COC(=O)c1ccc(OCC(O)CN2CCC(Oc3ccc(C(F)(F)F)cc3)CC2)cc1` (stereo unspecified), the Activity result was “Non-toxic” with Mus musculus [1], 26.8% in the data set with Mus musculus [2] and 32.84% with Mus musculus [4]. For the same compound, the result with Mus musculus [3] was inactive.

As for `OC(COc1cccc(C(F)(F)F)c1)CN1CCC(Oc2ccc(C(F)(F)F)cc2)CC1` (stereo unspecified), the Activity result is “Non-toxic” with Mus musculus [1], 31.2% in the data set with Mus musculus [2] and 38.23% in the data set on Mus musculus [4]. In addition, the result in the data set with Mus musculus [3] was inactive.

Regarding `CC(=O)Nc1ccc(OCC(O)CN2CCC(Oc3ccc(C(F)(F)F)cc3)CC2)cc1` (stereo unspecified), the Activity result is “Non-toxic” in the data set with Mus musculus [1], 50.4% in the data set with Mus musculus [2] and 61.67% with Mus musculus [4]. Further, the result with Mus musculus [3] was inactive.

With `FC(F)(F)c1ccc(OC2CCNCC2)cc1`, the Activity result in the data set with Mus musculus [1] is “Non-toxic”; in the data set with Mus musculus [2] it was 66.8%; in the data set on Mus musculus [3], 75%; with Mus musculus [4], 81.86%.

Regarding `CC(=O)c1ccc(OCC(O)CN2CCC(Oc3ccc(C(F)(F)F)cc3)CC2)cc1` (stereo unspecified), the results for the Activity result in the data set with Mus musculus [1], in the data set with Mus musculus [2] and with Mus musculus [4] were “Non-toxic”, 78.4% and 96.07%, respectively. For the same compound, in the data set with Mus musculus [3], the outcome was inactive.

For the compound `CN1CCC(O)(c2ccccc2)CC1`, the Activity entry in the data set on Mus musculus [1] is “Non-toxic”; in the data set with Mus musculus [2] it was 46.4%; with Mus musculus [4], 56.86%. Besides, the result with Mus musculus [3] was inactive.

For the compound `COC(=O)c1ccccc1OCC(O)CN1CCC(Oc2ccc(C(F)(F)F)cc2)CC1` (stereo unspecified), the figures for the Activity result with Mus musculus [1], in the data set with Mus musculus [2] and with Mus musculus [4] were “Non-toxic”, 35.2% and 43.13%, respectively. For the same compound, the result in the data set with Mus musculus [3] was inactive.

Turning to `N#Cc1ccc(OCC(O)CN2CCC(Oc3ccc(C(F)(F)F)cc3)CC2)cc1` (stereo unspecified), the Activity result with Mus musculus [1] is reported as “Non-toxic”; in the data set with Mus musculus [2], 57.6%; in the data set with Mus musculus [4], 70.58%. For the same compound, in the data set on Mus musculus [3], the outcome was inactive.
